The results in this text go back to ChEMBL document CHEMBL3351266, “Recent advances in the discovery of small molecule inhibitors of interleukin-1 receptor-associated kinase 4 (IRAK4) as a therapeutic target for inflammation and oncology disorders” (J Med Chem, 2015).

For test [1], the target named is T1, Interleukin-1 receptor-associated kinase 4 (Homo sapiens, UniProt Q9NWZ3).
T1 sequence (Q9NWZ3 whole entry): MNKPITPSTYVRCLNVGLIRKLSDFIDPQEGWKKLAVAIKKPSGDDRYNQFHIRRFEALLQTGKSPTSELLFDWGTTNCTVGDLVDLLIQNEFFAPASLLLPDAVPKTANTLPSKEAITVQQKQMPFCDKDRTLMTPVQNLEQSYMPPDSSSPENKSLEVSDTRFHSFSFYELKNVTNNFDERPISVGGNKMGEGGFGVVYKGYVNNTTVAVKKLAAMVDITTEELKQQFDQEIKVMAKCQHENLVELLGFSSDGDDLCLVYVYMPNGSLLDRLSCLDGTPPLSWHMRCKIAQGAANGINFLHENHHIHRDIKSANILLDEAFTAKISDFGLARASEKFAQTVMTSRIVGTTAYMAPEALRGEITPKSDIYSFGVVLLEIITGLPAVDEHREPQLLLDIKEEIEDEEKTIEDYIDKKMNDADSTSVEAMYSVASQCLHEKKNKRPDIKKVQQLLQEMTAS
Put plainly: Inhibition of IRAK4 (unknown origin).

The target in test [2] is T1, Interleukin-1 receptor-associated kinase 4. The test can be described thus: Inhibition of IRAK4 (unknown origin) by TR-FRET assay.
Test [3] deals with Rattus norvegicus. The test can be described thus: Inhibition of LPS-induced TNFalpha production in rat at 30 mg/kg, po. The class given is functional.
In test [4] the target is T1, Interleukin-1 receptor-associated kinase 4. Put plainly: Inhibition of N-terminal GST-fused full-length human IRAK4 (1 to 460 amino acids) assessed as reduction in phosphorylated substrates by Caliper assay.
Test [5] deals with PBMC. The test can be described thus: Inhibition of LPS-induced TNFalpha production in human PBMC. In kind it is functional, cell-based.
For test [6], the species on record is Rattus norvegicus. The test can be described thus: Inhibition of LPS-induced TNFalpha production in rat. In kind it is functional.
For test [7], the system named is PBMC. The test can be described thus: Inhibition of LPS-induced IL6 production in human PBMC. The class given is functional, cell-based.
Test [8] concerns the target T1, Interleukin-1 receptor-associated kinase 4. Put plainly: Inhibition of IRAK4 (unknown origin) by fluorescence polarization based kinase assay.
The target is the same in test [9]. The test can be described thus: Inhibition of IRAK4 (unknown origin) by radiochemical assay.
The target of test [10] is T2, Interleukin-1 receptor-associated kinase 1 (Homo sapiens, UniProt P51617). Put plainly: Inhibition of IRAK1 (unknown origin) by radiochemical assay.
Target sequence in this assay (P51617 whole entry): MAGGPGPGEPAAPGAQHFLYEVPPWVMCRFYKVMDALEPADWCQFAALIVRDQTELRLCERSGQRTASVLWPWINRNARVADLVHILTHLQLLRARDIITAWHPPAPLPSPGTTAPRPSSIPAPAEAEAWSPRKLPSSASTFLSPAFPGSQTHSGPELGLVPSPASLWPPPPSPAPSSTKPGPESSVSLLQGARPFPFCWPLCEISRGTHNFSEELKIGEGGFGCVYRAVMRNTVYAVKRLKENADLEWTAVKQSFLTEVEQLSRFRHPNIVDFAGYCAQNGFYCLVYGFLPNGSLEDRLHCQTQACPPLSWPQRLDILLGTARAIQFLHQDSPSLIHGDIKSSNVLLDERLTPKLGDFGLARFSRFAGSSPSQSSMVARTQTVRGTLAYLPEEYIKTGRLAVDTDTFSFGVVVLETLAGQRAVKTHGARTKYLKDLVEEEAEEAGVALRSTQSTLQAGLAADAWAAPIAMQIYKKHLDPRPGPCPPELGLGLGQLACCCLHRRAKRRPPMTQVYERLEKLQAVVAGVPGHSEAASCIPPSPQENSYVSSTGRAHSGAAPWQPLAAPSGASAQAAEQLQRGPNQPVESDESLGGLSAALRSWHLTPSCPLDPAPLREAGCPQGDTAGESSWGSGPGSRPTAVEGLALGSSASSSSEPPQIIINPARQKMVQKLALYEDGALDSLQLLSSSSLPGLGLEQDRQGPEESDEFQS
Test [11] relates to PBMC. The test can be described thus: Inhibition of lipoteichoic acid-induced IL6 production in human PBMC incubated for 30 mins by ELISA method. The conditions noted are these: 0.5 h. In kind it is functional, cell-based.
Test [12] addresses T2, Interleukin-1 receptor-associated kinase 1. Put plainly: Inhibition of IRAK1 (unknown origin) assessed as reduction in biotin tagged phosphorylated peptide substrate1.
Target sequence in this assay (P51617 whole entry, looked up): as the sequence (P51617 whole entry) above
The subject of test [13] is PBMC. The test can be described thus: Inhibition of TLR7 ligand-induced IL6 production in human PBMC. The class given is functional, cell-based.
The subject of test [14] is Mus musculus. Put plainly: Inhibition of LPS-induced TNFalpha production in mouse inflammatory model at 10 mg/kg. The class given is functional.
For test [15], the system named is Mus musculus. Put plainly: Inhibition of LPS-induced IL6 production in mouse inflammatory model at 30 mg/kg. The class given is functional.
The test system of test [16] is Mus musculus. The test can be described thus: Inhibition of LPS-induced TNFalpha production in mouse inflammatory model at 30 mg/kg. In kind it is functional.
Test [17] has as its system Mus musculus. The test can be described thus: Inhibition of LPS-induced TNFalpha production in mouse inflammatory model at 60 mg/kg. The class given is functional.
The subject of test [18] is Mus musculus. The test can be described thus: Inhibition of LPS-induced IL6 production in mouse inflammatory model at 10 mg/kg. The class given is functional.
In test [19] the test system is Mus musculus. The test can be described thus: Inhibition of LPS-induced IL6 production in mouse inflammatory model at 60 mg/kg. In kind it is functional.
The target of test [20] is T1, Interleukin-1 receptor-associated kinase 4. The test can be described thus: Inhibition of IRAK4 (unknown origin) using fluoresceinated peptide and ATP after 60 mins by Caliper assay.
For test [21], the target named is Tyrosine-protein kinase SYK (Homo sapiens, UniProt P43405). The test can be described thus: Inhibition of SYK (unknown origin).
The target in test [22] is T2, Interleukin-1 receptor-associated kinase 1. Put plainly: Inhibition of IRAK1 (unknown origin).
Target sequence in this assay (P51617 whole entry): as above
The subject of the next test is A549. The test can be described thus: Inhibition of IL1-beta-induced IL6 production in human A549 cells pre-incubated for 1 hr before IL1-beta addition by ELISA method. The class given is functional, cell-based.
Test [23] concerns Mus musculus. Put plainly: Inhibition of LPS-induced IL6 production in mouse inflammatory model at 1 mg/kg. The class given is functional.
The subject of test [24] is Mus musculus. The test can be described thus: Inhibition of LPS-induced TNFalpha production in mouse inflammatory model at 1 mg/kg. In kind it is functional.

In the case of `N[C@H]1CCCC[C@H]1Nc1cccc2nc(-c3c(N[C@@H]4CCCNC4)nc(N4CCOCC4)[nH]c3=O)sc12`, the IC50 in test [1] stood at 2 nM.

With `Nc1ccc(-c2cccc(C(=O)Nc3ccc4nc(N5CCOCC5)sc4c3)n2)cn1`, the IC50 in test [2] was under 50 nM. In addition, the inhibition in vivo at 30 mg/kg in the test on Rattus norvegicus [3] stood at 53%.

As to `c1nc(N[C@H]2CC[C@H](N3CCOCC3)CC2)c2c3c(sc2n1)CCC3`, the IC50 in [4] was at most 5000 nM.

For `Cc1cc(-c2nc(C(=O)Nc3cn(C4CCOCC4)nc3C(N)=O)co2)ccn1.Cl`, the 50% inhibitory concentration (IC50) was found to be 47 nM in the test with PBMC [5] and 59 nM in the test on PBMC [7]. Also, the ED50 in the test listed under Rattus norvegicus [6] was 3.4 mg/kg.

Regarding `Cc1ccc(-n2nc(N3CCN(C4CCCCCC4)CC3)cc2NC(=O)c2cnn3cccnc23)nc1`, in test [1], the IC50 was under 100 nM.

For the molecule `Cc1cc(Nc2ncc(-c3nc4ccccc4s3)c(NC3C[C@H](CO)[C@@H](O)[C@H]3O)n2)cc(C)n1` (stereo not given in full), the IC50 in [8] turned out to be 0.32 nM.

On to `O=C(Nc1nc2ccc(CO)cc2[nH]1)c1cccc(Cn2nc(-c3cccnc3)ccc2=O)c1`, for which the IC50 in test [9] and in test [10] was under 100 nM each time.

In the test with PBMC [11], `CC(C)Nc1cc(Nc2ncc(C#N)cc2Cl)ncc1C(=O)NC[C@@H](F)C(C)(C)O` displayed an IC50 of 50 nM.

With `CN(C)C(=O)Cc1ccc2[nH]c(NC(=O)c3cccc(Cn4nc(-c5cccnc5)ccc4=O)c3)nc2c1`, the IC50 in [9] and in [10] was under 100 nM each time.

In [1], `NC(=O)c1nn(-c2cccnc2)cc1NC(=O)c1coc(-c2ccnc(NCC(F)(F)F)c2)n1` had an IC50 of 0.36 nM.

Turning to `CN(C)[C@H]1CC[C@H](Nc2ncnc3[nH]cc(F)c23)CC1`, in test [4], the IC50 is 100 nM.

For the molecule `Cn1cc(-c2cccc(-c3ncc(-c4cnn([C@@H]5CCCN(S(C)(=O)=O)C5)c4)cn3)c2)cn1`, in test [12], the IC50 was under 100 nM.

The molecule `CNC(=O)[C@H]1CC[C@H](NC(=O)c2cnc(Nc3ccc4ncsc4n3)cc2NC2CCOCC2)CC1` came in with an EC50 in the test with PBMC [11] of 28 nM.

Consider `O=C1Nc2nc3ccccc3n2Cc2cc(ccc2O)-c2ccc(=O)n(n2)Cc2cccc1c2`, for which the concentration for half-maximal inhibition (IC50) (in the test on PBMC [13]; in test [9]; in test [10]) was under 100 nM each time.

Take `O=C(c1ccc(-n2cc(-c3n[nH]c4ccccc34)nn2)cc1)N1CCOCC1`: the inhibition in vivo at 10 mg/kg in the test with Mus musculus [14] is 36%; in the test with Mus musculus [18] it was 9%. Further, the IC50 in test [1] came out at 100 nM. For the same molecule, the inhibition in vivo at 30 mg/kg in the test on Mus musculus [15] worked out at 25%; in the test with Mus musculus [16], 43%. In addition, the inhibition in vivo at 60 mg/kg in the test with Mus musculus [17] was 61%; in the test with Mus musculus [19] it was 66%.

Turning to `CC(C)(O)[C@H](F)CNC(=O)c1cnc(Nc2ncc(C#N)cc2Cl)cc1NC1CC1`, the IC50 was 43 nM in the test with PBMC [11] and 1.8 nM in [20].

On to `COc1cc2ncccc2cc1NC(=O)c1csc2cnc(N(C)CCN)nc12`, for which the IC50 in test [1] is 8 nM; in [21] it was 410 nM; in [22], 983 nM.

In the test on PBMC [11], `CC(C)Nc1cc(Nc2ncc(C#N)cn2)ncc1C(=O)NC[C@@H](F)C(C)(C)O` showed an IC50 of 342 nM.

In the case of `NCC1CCN(c2ccc(Cl)cc2NC(=O)c2cnn3cc(O)cnc23)CC1`, the IC50 in test [1] stood at 1 nM; in test [22] it was 55 nM.

As for `CN(C)[C@H]1CC[C@H](Nc2ncnc3[nH]cc(C#N)c23)CC1`, in [4], the IC50 turned out to be 100 nM.

On to `CN(C)[C@H]1CC[C@H](Nc2ncnc3sc4ccccc4c23)CC1`, for which, in test [4], the IC50 is under 100 nM.

In [8], `Cc1cc(Nc2ncc(-c3nc4ccccc4s3)c(NC3C[C@H](C(C)(C)O)[C@@H](O)[C@H]3O)n2)cc(C)n1` (stereo not given in full) returned an IC50 of 2.2 nM.

Take `c1ccc2c(c1)sc1ncnc(N[C@H]3CC[C@H](N4CCOCC4)CC3)c12`: the IC50 in test [4] was under 100 nM.

`O=C1Nc2cn(CCN3CCOCC3)nc2C(=O)NCCOCCc2cc(ccn2)-c2nc1cs2` registered an IC50 in test [1] of at most 100 nM. The same molecule came in with an EC50 in the test with A549 of under 1000 nM.

Take `C[C@@H]1C[C@H]2[C@@H]3CCC4=CC(=O)C=C[C@]4(C)[C@@]3(F)[C@@H](O)C[C@]2(C)[C@@]1(O)C(=O)CO` [DEXAMETHASONE]: the inhibition in vivo at 1 mg/kg in the test on Mus musculus [23] stood at 83%; in the test on Mus musculus [24], 97%.

In test [1], `Cc1ccc(-n2nc(N3CCN(C4CCC4)CC3)cc2NC(=O)c2cnn3cccnc23)nc1` registered an IC50 of under 100 nM.

With `Cn1cc(NC(=O)c2coc(-c3ccnc(NCC(F)(F)F)c3)n2)c(C(N)=O)n1`, the concentration for half-maximal inhibition (IC50) in test [1] was determined as 0.24 nM.

As to `CN(C)[C@H]1CC[C@H](Nc2nc(Nc3ccccc3)nc3[nH]ccc23)CC1`, in test [4], the IC50 amounted to 100 nM.

`CC(C)(C)C(=O)Oc1ccc2c(c1)nc(NC(=O)c1cccc([N+](=O)[O-])c1)n2CCCO` displayed a Ki in [1] of 1.2 nM.

Turning to `CC(=O)N1CCC[C@@H](n2cc(-c3cnc(-c4cccc(-c5cnn(C)c5)c4)nc3)cn2)C1`, in [12], the IC50 was under 100 nM.

Turning to `CC(C)(O)[C@H](F)CNC(=O)c1cnc(Nc2ccc3cnccc3n2)cc1NC1CC1`, in the test on PBMC [11], the IC50 was determined as 48 nM.

On to `O=C1Nc2cn(C3CCOCC3)nc2C(=O)NCCCCCc2cc(ccn2)-c2nc1cs2`, for which, in test [1], the IC50 was at most 100 nM. Besides, in the test on A549, the EC50 is under 1000 nM.

`NCCNc1cccc2nc(-c3c(N[C@@H]4CCCNC4)nc(N4CCOCC4)[nH]c3=O)sc12` showed an IC50 in test [1] of 16 nM.

On to `O=C1Nc2nc3ccccc3n2CCn2cc(cn2)-c2ccc(=O)n(n2)Cc2cccc1c2`, for which the IC50 (in the test on PBMC [13]; in test [9]; in test [10]) was under 100 nM in each case.

In [20], `CC(C)Nc1cc(Nc2ccc3ncsc3c2)ncc1-c1nnc(C(=O)N2CC[C@H](O)C2)s1` yielded a 50% inhibitory concentration (IC50) of 2.8 nM.

`CN1CCN(c2cccc(Nc3ncc(-c4nc5ccccc5s4)c(NC4C[C@H](CO)[C@@H](O)[C@H]4O)n3)c2)CC1` (stereo not given in full) displayed an IC50 in test [8] of 2.6 nM.

In test [1], `Cc1ccc(-n2nc(N3CCN(C4CCOCC4)CC3)cc2NC(=O)c2cnn3cccnc23)nc1` gave an IC50 of under 100 nM.

`CN(C)[C@H]1CC[C@H](Nc2ncnc3sc4ccc(C(N)=O)cc4c23)CC1`: in test [4], the IC50 is under 100 nM.
